The assay has as its target T1, Endothelial lipase (EL) (Homo sapiens, UniProt Q9Y5X9).
T1 construct: HT-1080 cells, which were transformed by RAGE technology (Athersys) to overexpress endogenous EL; endogenous in cells; conditioned medium used as the enzyme source
T1 sequence (Q9Y5X9 21-500): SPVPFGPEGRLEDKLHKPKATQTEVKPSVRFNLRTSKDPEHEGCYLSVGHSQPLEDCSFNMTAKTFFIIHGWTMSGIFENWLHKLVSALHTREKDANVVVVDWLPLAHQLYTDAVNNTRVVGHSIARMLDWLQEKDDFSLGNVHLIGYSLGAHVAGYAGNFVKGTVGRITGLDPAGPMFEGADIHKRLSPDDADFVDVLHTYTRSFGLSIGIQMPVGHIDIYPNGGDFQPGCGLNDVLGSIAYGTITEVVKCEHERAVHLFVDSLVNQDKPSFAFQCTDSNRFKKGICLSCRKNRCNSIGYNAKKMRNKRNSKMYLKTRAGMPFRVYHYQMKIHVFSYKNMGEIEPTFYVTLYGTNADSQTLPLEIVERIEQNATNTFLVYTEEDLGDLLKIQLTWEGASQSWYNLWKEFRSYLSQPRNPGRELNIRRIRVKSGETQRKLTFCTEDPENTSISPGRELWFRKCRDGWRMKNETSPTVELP
The assay is described as follows: Endothelial lipase (EL) enzymatic assay with fluorescent substrate A10070 in DMPG vesicles. It is filed as biochemical. How it is done: Endothelial lipase activity was measured using a fluorescent substrate, A10070, (Invitrogen, CA) doped into an artificial vesicle containing DMPG (Avanti Polar Lipids) as the excipient. Vesicles were prepared by combining 285 μL of 1 mM DMPG in a 1:1 mixture of MeOH and CHCl3 with 15 μL of 1 mM A10070 in a 1:1 mixture of MeOH and CHCl3. The mixture was dried under nitrogen and resuspended in 150 μL of 50 mM HEPES pH 8.0 buffer containing 100 mM NaCl and 0.2 mM EDTA. The sample was allowed to sit at rt for 15 min and then was sonicated 3×4 mins on ice with a Branson Sonicator using duty cycle 1. This preparation provides vesicles with a mole fraction of 0.05 for the FRET substrate.
The enzymatic assay was measured using white, opaque 96-well half area plates. Each well contained 60 μL of assay buffer (50 mM HEPES pH 8.0, 50 mM NaCl and 1 mM CaCl2) and 2 ul of a DMSO solution containing compound of interest. Conditioned media obtained from HT-1080 cells, which were transformed by RAGE technology (Athersys) to overexpress endogenous EL, was added and the reaction was allowed to incubate for 20 min at 37° C. with gentle agitation. The reaction was started by the addition of 20 μL of a 1:4 dilution of vesicles. The final total reaction volume was 100 μL. The reaction rates were measured on a Gemini plate reader with an excitation wavelength of 488 nm and an emission of 530 nm. Readings were taken every 20 seconds for 10 min with agitation between each reading. The slope of the linear portion of the readout was used to calculate the rate of the reaction.

The mark [1] stands for this setting: range observed in the EL assay, read-out: EL IC50 values.
The mark [2] stands for this setting: conditioned media from HT-1080 cells overexpressing endogenous EL, 20 min preincubation at 37° C., read-out: EL IC50.

For orientation: IC50 means the midpoint of a concentration-inhibition curve.

Like-named read-outs stand apart in the source and are kept apart here.

For `O=C(NC1CCCc2c(-c3ccccc3)cccc21)c1[nH]c(=O)[nH]c(=O)c1O` (stereo not shown) [Example 285, 5-hydroxy-2,6-dioxo-N-(5-phenyl-1,2,3,4-tetrahydronaphthalen-1-yl)-1,2,3,6-tetrahydropyrimidine-4-carboxamide], the half-inhibitory concentration (IC50) under setting [1] was at most 10 µM.
`O=C(O)Cn1c(=O)[nH]c(C(=O)N[C@H]2CC[C@@H](c3ccccc3)CC2)c(O)c1=O` [Example 267, 2-(5-Hydroxy-2,6-dioxo-4-((cis-4-phenylcyclohexyl)carbamoyl)-2,3-dihydropyrimidin-1(6H)-yl)acetic acid]: the IC50 by setting is: under setting [2], 1.42 µM; under setting [1], at most 10 µM.
For `Nc1c(C(=O)N[C@H]2CCCc3cc(C(F)(F)F)ccc32)[nH]c(=O)[nH]c1=O` [Example 52, (S)-5-amino-2,6-dioxo-N-(6-(trifluoromethyl)-1,2,3,4-tetrahydronaphthalen-1-yl)-1,2,3,6-tetrahydropyrimidine-4-carboxamide], the IC50 under setting [1] is at most 10 µM.
Consider `Nc1c(C(=O)N[C@@H]2CCc3c(OCc4ccccc4)cccc32)[nH]c(=O)[nH]c1=O` [Example 86, (R)-5-ammo-N-(4-(benzyloxy)-2,3-dihydro-1H-inden-1-yl)-2,6-dioxo-1,2,3,6-tetrahydropyrimidine-4-carboxamide], for which the IC50 under setting [1] is at most 10 µM.
In the case of `Nc1c(C(=O)N[C@H]2CC[C@@H](NC(=O)Cc3ccccc3)CC2)[nH]c(=O)[nH]c1=O` [Example 116, 5-amino-2,6-dioxo-N-(cis-4-(2-phenylacetamido)cyclohexyl)-1,2,3,6-tetrahydropyrimidine-4-carboxamide], under setting [1], the IC50 is at most 10 µM.
Same read-out and setting: with `COc1cccc2c1CCC[C@H]2NC(=O)c1[nH]c(=O)[nH]c(=O)c1O` [Example 261, (R)-5-hydroxy-N-(5-methoxy-1,2,3,4-tetrahydronaphthalen-1-yl)-2,6-dioxo-1,2,3,6-tetrahydropyrimidine-4-carboxamide] the figure was at most 10 µM; with `O=C(N[C@@H]1CCc2cc(O)ccc21)c1[nH]c(=O)[nH]c(=O)c1O` [Example 262, (R)-5-hydroxy-N-(5-hydroxy-2,3-dihydro-1H-inden-1-yl)-2,6-dioxo-1,2,3,6-tetrahydropyrimidine-4-carboxamide], at most 10 µM; with `CC(C)Cn1cc(-c2ccc([C@@H]3CC[C@H](NC(=O)c4[nH]c(=O)[nH]c(=O)c4N)C3)cc2)cn1` [Example 172, 5-amino-N-((1S,3R)-3-(4-(1-isobutyl-1H-pyrazol-4-yl)phenyl)cyclopentyl)-2,6-dioxo-1,2,3,6-tetrahydropyrimidine-4-carboxamide], at most 10 µM.
Regarding `Nc1c(C(=O)N[C@@H]2CCCc3c(NS(=O)(=O)c4ccccc4)cccc32)[nH]c(=O)[nH]c1=O` [Example 125, (R)-5-amino-2,6-dioxo-N-(5-(phenylsulfonamido)-1,2,3,4-tetrahydronaphthalen-1-yl)-1,2,3,6-tetrahydropyrimidine-4-carboxamide], the half-inhibitory concentration (IC50) under setting [2] came to 0.329 µM and the IC50 under setting [1] is at most 10 µM.
Consider `Nc1c(C(=O)NC2CCC(c3ccc(OCc4ccccc4)cc3)C2)[nH]c(=O)[nH]c1=O` (single isomer, unassigned) [Example 151, 5-amino-N-(3-(4-(benzyloxy)phenyl)cyclopentyl)-2,6-dioxo-1,2,3,6-tetrahydropyrimidine-4-carboxamide], for which the half-maximal inhibitory concentration (IC50) under setting [1] was at most 10 µM.
On to `Nc1c(C(=O)N[C@@H]2CC[C@@H](C(=O)N[C@H]3CC[C@@H](c4ccccc4)CC3)C2)[nH]c(=O)[nH]c1=O` [Example 147, 5-amino-2,6-dioxo-N-((1R,3R)-3-(cis-4-phenylcyclohexylcarbamoyl)cyclopentyl)-1,2,3,6-tetrahydropyrimidine-4-carboxamide], for which the 50% inhibitory concentration (IC50) under setting [1] is at most 10 µM.
Regarding `CC(C)(O)CNc1c(C(=O)N[C@H]2CC[C@@H](c3ccccc3)CC2)[nH]c(=O)[nH]c1=O` [Example 234, 5-(2-hydroxy-2-methylpropylamino)-2,6-dioxo-N-(cis-4-phenylcyclohexyl)-1,2,3,6-tetrahydropyrimidine-4-carboxamide], the IC50 is, setting by setting: under setting [2], 0.439 µM; under setting [1], at most 10 µM.
`CCn1c(=O)[nH]c(C(=O)N[C@H]2CC[C@@H](c3ccccc3)CC2)c(O)c1=O` [Example 239, 1-Ethyl-5-hydroxy-2,6-dioxo-N-(cis-4-phenylcyclohexyl)-1,2,3,6-tetrahydropyrimidine-4-carboxamide]: the IC50 under setting [1] was at most 10 µM.
Take `Nc1c(C(=O)NC2CCCC(c3cnn(Cc4ccccc4)c3)C2)[nH]c(=O)[nH]c1=O` (stereo not shown) [Example 127, 5-amino-N-(3-(1-benzyl-1H-pyrazol-4-yl)cyclohexyl)-2,6-dioxo-1,2,3,6-tetrahydropyrimidine-4-carboxamide]: the IC50 under setting [2] was 0.03 µM and the IC50 under setting [1] was at most 10 µM.
Regarding `COC(=O)C1CCCC(NC(=O)c2[nH]c(=O)[nH]c(=O)c2N)C1` (stereo not shown) [Example 58, methyl 3-(5-amino-2,6-dioxo-1,2,3,6-tetrahydropyrimidine-4-carboxamido) cyclohexanecarboxylate], the IC50 under setting [1] was at most 10 µM.
For `CCn1c(=O)c(O)c(C(=O)N[C@H]2CC[C@@H](c3ccccc3)CC2)n(Cc2ccccc2)c1=O` [Example 240, 3-Benzyl-1-ethyl-5-hydroxy-2,6-dioxo-N-(cis-4-phenylcyclohexyl)-1,2,3,6-tetrahydropyrimidine-4-carboxamide], the IC50 is 0.024 µM under setting [2] and at most 10 µM under setting [1].
Take `O=C(N[C@@H]1CCCc2c(OCC3CCCC3)cccc21)c1[nH]c(=O)[nH]c(=O)c1O` [Example 291, (R)-N-(5-(cyclopentylmethoxy)-1,2,3,4-tetrahydronaphthalen-1-yl)-5-hydroxy-2,6-dioxo-1,2,3,6-tetrahydropyrimidine-4-carboxamide]: under setting [1], the IC50 is at most 10 µM.
With `Nc1c(C(=O)N[C@H]2CCCc3ccc(F)cc32)[nH]c(=O)[nH]c1=O` [Example 41, (S)-5-amino-N-(7-fluoro-1,2,3,4-tetrahydronaphthalen-1-yl)-2,6-dioxo-1,2,3,6-tetrahydropyrimidine-4-carboxamide], under setting [1], the concentration for half-maximal inhibition (IC50) is at most 10 µM.
For `COc1cccc2c1CCCC2NC(=O)c1[nH]c(=O)[nH]c(=O)c1N` (stereo not shown) [Example 47, 5-amino-N-(5-methoxy-1,2,3,4-tetrahydronaphthalen-1-yl)-2,6-dioxo 1,2,3,6-tetrahydropyrimidine-4-carboxamide], the half-inhibitory concentration (IC50) under setting [1] is at most 10 µM.
Consider `O=C(N[C@H]1C[C@@H](c2ccccc2)c2ccccc21)c1[nH]c(=O)[nH]c(=O)c1O` [Example 247, 5-hydroxy-2,6-dioxo-N-((1S,3S)-3-phenyl-2,3-dihydro-1H-inden-1-yl)-1,2,3,6-tetrahydropyrimidine-4-carboxamide], for which, under setting [1], the IC50 is at most 10 µM.
Consider `O=C(N[C@@H]1CC[C@@H](c2ccccc2)C1)c1[nH]c(=O)[nH]c(=O)c1O` [Example 272, 5-hydroxy-2,6-dioxo-N-((1R,3R)-3-phenylcyclopentyl)-1,2,3,6-tetrahydropyrimidine-4-carboxamide], for which the IC50 under setting [1] was at most 10 µM.
On to `O=C(N[C@H]1CCCc2c(OCC(F)(F)F)cccc21)c1[nH]c(=O)[nH]c(=O)c1O` [Example 246, (S)-5-hydroxy-2,6-dioxo-N-(5-(2,2,2-trifluoroethoxy)-1,2,3,4-tetrahydronaphthalen-1-yl)-1,2,3,6-tetrahydropyrimidine-4-carboxamide], for which, under setting [1], the half-maximal inhibitory concentration (IC50) is at most 10 µM.
Still for that read-out and setting: with `Nc1c(C(=O)N[C@H]2C[C@@H](c3ccccc3)c3ccccc32)[nH]c(=O)[nH]c1=O` (racemic) [Example 18, 5-amino-2,6-dioxo-N-(cis-3-phenyl-2,3-dihydro-1H-inden-1-yl)-1,2,3,6-tetrahydropyrimidine-4-carboxamide] the figure was at most 10 µM.
For the compound `Nc1c(C(=O)N[C@H]2CCc3ccc(-c4ccccc4)cc32)[nH]c(=O)[nH]c1=O` [Example 139, (S)-5-amino-2,6-dioxo-N-(6-phenyl-2,3-dihydro-1H-inden-1-yl)-1,2,3,6-tetrahydropyrimidine-4-carboxamide], the half-inhibitory concentration (IC50) under setting [2] was determined as 0.028 µM and the IC50 under setting [1] is at most 10 µM.
Turning to `Nc1c(C(=O)N[C@@H]2CCCc3c(Nc4ccccc4)cccc32)[nH]c(=O)[nH]c1=O` [Example 126, (R)-5-amino-2,6-dioxo-N-(5-(phenylamino)-1,2,3,4-tetrahydronaphthalen-1-yl)-1,2,3,6-tetrahydropyrimidine-4-carboxamide], the IC50 under setting [1] is at most 10 µM.
